# In patent publication US20180134683A1, “HETEROCYLCIC COMPOUNDS AS IDH2 INHIBITORS” (TELIGENE LTD., priority 2015, published 2018):
# Like-named read-outs stand apart in the source and are kept apart here.
# Columns and labels:
# [1] = target: T1, IDH2 R140Q (Homo sapiens, UniProt P48735, R140Q); assay: IDH2 enzymatic assay (cofactor depletion assay); type: biochemical
# T1 sequence (P48735 40-452 R140Q): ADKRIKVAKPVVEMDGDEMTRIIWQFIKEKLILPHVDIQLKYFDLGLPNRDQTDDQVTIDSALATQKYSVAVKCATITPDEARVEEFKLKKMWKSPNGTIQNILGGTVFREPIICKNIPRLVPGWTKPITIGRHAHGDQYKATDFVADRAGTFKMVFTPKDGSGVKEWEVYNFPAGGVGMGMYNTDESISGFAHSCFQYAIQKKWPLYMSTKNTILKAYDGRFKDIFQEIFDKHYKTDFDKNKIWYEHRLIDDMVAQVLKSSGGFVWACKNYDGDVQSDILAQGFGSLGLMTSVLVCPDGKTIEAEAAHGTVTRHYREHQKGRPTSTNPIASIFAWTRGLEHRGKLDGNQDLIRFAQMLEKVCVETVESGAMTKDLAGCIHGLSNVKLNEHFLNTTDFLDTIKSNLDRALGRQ
# Description: Enzymatic Assay. Compounds were assayed for IDH2 R140Q inhibitory activity through a cofactor depletion assay. […] The reaction was terminated by the addition of a second enzyme, diaphorase, and a corresponding substrate, resazurin. Diaphorase reduces resazurin to the highly fluorescent resorufin with the concomitant oxidation of NADPH to NADP, both halting the IDH2 reaction by depleting the available cofactor pool and facilitating quantitation of the amount of cofactor remaining after a specific time period through quantitative production of an easily detected fluorophore. […] The compound was then incubated for one hour at room temperature with the enzyme; before starting the IDH2 reaction with the addition of 10 μl of substrate mix containing 50 μM NADPH and 6.3 mM a-KG in the buffer described above.
# [2] = target: ALK (L1152 R) (Homo sapiens, UniProt Q9UM73, L1152R); assay: In vitro kinase assay (33P-ATP, P81 filter); type: biochemical; settings: for remaining activity at 10 µM: 10 μM compound, 10 μM ATP
# Description: (§1) These properties may be assesses, for example, using one or more of the procedures set out below: • An in vitro assay which determines the ability of a test compound to inhibit kinases. Conducts the kinase assay with the following condition and procedure: • Reagent: Base Reaction Buffer; 20 mM Hepes (pH 7.5), 10 mM MgCl2, 1 mM EGTA, 0.02% Brij35, 0.02 mg/ml BSA, 0.1 mM Na3VO4, 2 mM DTT, 1% DMSO.
# (§2) • 1. Prepare indicated substrate in freshly prepared Base Reaction Buffer. • 2. Deliver any required cofactors to the substrate solution obtained in step 1. • 3. Deliver indicated kinase into the substrate solution prepared in step 2 and gently mix. • 4. Deliver compounds in DMSO into the kinase reaction mixture prepared in step 3. • 5. Deliver ^33P-ATP (specific activity 0.01 μCi/μl final) into the reaction mixture prepared in step 4 to initiate the reaction. • 6. Incubate kinase reaction for 120 min. at room temperature. • 7. Reactions are spotted onto P81 ion exchange paper (Whatman # 3698-915). • 8. Washing filters extensively in 0.75% Phosphoric acid. Compound was tested in single dose duplicate mode at a concentration of 10 μM, reactions were carried out at 10 μM ATP
# [3] = target: T2, AXL (R499C) (Homo sapiens, UniProt P30530, R499C); assay: In vitro kinase assay (33P-ATP, P81 filter); type: biochemical; settings: for remaining activity at 10 µM: 10 μM compound, 10 μM ATP
# T2 sequence (P30530 26-894 R499C): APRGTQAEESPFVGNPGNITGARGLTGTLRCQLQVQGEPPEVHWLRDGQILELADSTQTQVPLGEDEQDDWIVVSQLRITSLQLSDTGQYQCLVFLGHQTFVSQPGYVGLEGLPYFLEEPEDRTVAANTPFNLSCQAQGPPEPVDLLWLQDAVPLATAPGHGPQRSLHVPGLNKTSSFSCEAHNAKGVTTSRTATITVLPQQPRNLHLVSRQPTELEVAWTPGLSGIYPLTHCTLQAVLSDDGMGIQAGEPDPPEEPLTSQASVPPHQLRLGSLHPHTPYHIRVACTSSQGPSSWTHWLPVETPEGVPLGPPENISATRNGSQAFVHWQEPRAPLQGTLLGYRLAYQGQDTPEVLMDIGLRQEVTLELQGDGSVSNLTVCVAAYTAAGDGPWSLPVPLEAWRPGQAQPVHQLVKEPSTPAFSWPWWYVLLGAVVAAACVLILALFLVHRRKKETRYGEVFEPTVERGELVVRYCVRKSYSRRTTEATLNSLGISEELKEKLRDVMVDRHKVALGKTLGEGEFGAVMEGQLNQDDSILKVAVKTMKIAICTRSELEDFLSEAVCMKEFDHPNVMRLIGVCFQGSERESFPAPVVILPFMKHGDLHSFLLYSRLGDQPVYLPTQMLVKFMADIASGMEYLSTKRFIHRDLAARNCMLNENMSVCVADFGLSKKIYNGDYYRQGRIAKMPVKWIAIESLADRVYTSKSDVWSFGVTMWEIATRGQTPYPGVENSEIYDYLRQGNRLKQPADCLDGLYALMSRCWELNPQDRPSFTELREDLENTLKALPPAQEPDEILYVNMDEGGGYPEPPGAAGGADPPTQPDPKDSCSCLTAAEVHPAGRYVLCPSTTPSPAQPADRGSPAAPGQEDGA
# Description: as §1, §2
# [4] = target: BRAF (G464V) (Homo sapiens, UniProt P15056, G464V); assay: In vitro kinase assay (33P-ATP, P81 filter); type: biochemical; settings: for remaining activity at 10 µM: 10 μM compound, 10 μM ATP
# Description: as §1, §2
# [5] = target: T3, c-MER (A708S) (Homo sapiens, UniProt Q12866, A708S); assay: In vitro kinase assay (33P-ATP, P81 filter); type: biochemical; settings: for remaining activity at 10 µM: 10 μM compound, 10 μM ATP
# T3 sequence (Q12866 21-999 A708S): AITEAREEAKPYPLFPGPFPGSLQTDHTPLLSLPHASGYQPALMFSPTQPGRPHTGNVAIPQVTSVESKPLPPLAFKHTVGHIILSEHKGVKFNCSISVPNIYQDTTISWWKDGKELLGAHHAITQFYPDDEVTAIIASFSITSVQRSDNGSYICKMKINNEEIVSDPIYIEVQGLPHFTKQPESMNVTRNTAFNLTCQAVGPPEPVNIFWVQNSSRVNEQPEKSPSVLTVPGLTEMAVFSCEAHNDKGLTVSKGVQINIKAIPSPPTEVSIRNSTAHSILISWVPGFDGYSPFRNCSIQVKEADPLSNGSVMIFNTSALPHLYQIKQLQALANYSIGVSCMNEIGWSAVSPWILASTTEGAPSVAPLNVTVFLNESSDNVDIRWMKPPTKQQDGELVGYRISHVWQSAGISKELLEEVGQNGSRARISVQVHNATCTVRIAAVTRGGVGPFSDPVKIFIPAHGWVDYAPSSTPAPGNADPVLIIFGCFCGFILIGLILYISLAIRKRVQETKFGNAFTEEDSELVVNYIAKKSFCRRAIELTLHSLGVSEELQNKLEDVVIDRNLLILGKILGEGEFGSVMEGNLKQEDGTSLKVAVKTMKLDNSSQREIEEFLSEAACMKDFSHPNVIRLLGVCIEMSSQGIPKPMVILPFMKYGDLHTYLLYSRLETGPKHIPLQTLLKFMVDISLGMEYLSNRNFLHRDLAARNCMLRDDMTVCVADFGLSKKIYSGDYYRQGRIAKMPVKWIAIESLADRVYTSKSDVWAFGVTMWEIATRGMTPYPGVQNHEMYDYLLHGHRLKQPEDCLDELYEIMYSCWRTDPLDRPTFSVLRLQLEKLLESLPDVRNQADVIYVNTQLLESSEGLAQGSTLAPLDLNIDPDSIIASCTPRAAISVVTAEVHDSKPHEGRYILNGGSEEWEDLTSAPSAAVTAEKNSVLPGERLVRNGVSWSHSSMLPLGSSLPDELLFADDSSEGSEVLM
# Description: as §1, §2
# [6] = Solubility measurement (HPLC); type: physicochemical; settings: for solubility at 30 min: aqueous buffer, thermodynamic from solid, 25° C.
# Description: Preparation of reference standard solution: 2 mg of Compound 17 or Compound 19 was added individually to 100 mL volumetric flask each. The compound was diluted with acetonitrile to 100 mL.
# Preparation of sample solution: 2 mg of Compound 17 or Compound 19 was added individually to 2 mL eppendorf tube (EP), followed by addition of 1 mL of pH 7.0 or 4.0 buffer solution (20 mM). The solution was shook for 2 minutes and left for 30 minutes at 25° C. After standing for 30 minutes, precipitate was formed in the bottom of the EP. The solutions was filtered through 0.2 um membrane filter, and then diluted by 50 times with water.
# The standard and sample solutions were injected into the HPLC on a Shim-Pack CLC-ODS C18 column (150mm×6.0mm, 5um) with the same volume. The mobile phase consisted of acetonitrile with 2% trichloromethane−20 mM KH2PO4 buffer (pH=7.0) at a flow rate of 1 mL/minutes (40:60). The detection wavelength is at 264 nm. Calculation: solubility of sample=the concentration of standard×Area of sample×50 /Area of standard.
# [7] = Pharmacokinetic (PK) profile
# [8] = Safety profile
# [9] = IDH2 R140Q, one hour preincubation, 60 minutes reaction, read-out: Enzyme Inhibition IDH2
# [10] = duplicate 1, read-out: % Enzyme Activity (relative to DMSO controls) Data 1
# [11] = duplicate 2, read-out: % Enzyme Activity (relative to DMSO controls) Data 2
# [12] = pH 4.0 buffer solution (20 mM), read-out: Solubility at pH 4.0
# [13] = pH 7.0 buffer solution (20 mM), read-out: Solubility at pH 7.0
# Sequence of ALK (L1152 R) (Q9UM73 19-1620 L1152R): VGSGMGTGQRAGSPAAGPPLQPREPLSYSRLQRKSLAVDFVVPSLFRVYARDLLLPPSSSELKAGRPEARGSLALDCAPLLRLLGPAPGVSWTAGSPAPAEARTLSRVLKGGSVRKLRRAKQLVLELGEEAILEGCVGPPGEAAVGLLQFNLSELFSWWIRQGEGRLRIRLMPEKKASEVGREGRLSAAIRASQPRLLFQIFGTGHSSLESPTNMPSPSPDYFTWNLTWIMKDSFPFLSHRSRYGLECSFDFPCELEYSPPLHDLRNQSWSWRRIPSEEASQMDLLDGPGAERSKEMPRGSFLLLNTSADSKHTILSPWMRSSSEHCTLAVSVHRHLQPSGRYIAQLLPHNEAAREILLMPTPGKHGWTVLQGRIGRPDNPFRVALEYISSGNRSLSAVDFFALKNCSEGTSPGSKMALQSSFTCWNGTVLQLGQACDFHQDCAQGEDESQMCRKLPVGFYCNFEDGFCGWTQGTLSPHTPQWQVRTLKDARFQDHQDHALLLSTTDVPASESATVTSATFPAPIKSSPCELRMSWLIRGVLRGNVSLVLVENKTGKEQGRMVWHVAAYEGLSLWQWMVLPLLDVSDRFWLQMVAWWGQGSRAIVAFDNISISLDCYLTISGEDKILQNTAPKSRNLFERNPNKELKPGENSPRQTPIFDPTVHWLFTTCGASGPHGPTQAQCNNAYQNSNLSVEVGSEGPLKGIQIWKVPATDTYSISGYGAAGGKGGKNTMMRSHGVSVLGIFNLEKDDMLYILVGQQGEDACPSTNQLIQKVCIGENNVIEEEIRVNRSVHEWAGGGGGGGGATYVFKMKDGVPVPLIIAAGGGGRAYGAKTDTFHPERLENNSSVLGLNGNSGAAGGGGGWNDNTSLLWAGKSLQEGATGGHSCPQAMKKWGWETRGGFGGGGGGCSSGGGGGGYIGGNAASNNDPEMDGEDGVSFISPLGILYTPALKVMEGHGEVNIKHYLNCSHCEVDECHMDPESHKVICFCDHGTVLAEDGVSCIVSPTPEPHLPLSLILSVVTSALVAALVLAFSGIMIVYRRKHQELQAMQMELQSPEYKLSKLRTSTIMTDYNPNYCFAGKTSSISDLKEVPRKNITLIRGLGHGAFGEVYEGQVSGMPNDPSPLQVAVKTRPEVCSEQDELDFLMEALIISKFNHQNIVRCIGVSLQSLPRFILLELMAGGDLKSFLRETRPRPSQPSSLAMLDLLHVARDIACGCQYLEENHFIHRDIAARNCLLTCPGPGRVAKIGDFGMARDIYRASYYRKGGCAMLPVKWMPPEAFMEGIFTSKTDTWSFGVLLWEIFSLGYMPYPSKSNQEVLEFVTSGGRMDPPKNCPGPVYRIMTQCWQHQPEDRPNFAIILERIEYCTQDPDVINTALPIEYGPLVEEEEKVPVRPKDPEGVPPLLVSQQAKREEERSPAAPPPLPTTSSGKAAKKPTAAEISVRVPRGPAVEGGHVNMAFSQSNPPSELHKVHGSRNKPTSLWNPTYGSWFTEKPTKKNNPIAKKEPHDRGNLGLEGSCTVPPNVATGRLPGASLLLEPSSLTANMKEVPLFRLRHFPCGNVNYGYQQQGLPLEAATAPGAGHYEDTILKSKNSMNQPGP
# Sequence of BRAF (G464V) (P15056 whole entry G464V): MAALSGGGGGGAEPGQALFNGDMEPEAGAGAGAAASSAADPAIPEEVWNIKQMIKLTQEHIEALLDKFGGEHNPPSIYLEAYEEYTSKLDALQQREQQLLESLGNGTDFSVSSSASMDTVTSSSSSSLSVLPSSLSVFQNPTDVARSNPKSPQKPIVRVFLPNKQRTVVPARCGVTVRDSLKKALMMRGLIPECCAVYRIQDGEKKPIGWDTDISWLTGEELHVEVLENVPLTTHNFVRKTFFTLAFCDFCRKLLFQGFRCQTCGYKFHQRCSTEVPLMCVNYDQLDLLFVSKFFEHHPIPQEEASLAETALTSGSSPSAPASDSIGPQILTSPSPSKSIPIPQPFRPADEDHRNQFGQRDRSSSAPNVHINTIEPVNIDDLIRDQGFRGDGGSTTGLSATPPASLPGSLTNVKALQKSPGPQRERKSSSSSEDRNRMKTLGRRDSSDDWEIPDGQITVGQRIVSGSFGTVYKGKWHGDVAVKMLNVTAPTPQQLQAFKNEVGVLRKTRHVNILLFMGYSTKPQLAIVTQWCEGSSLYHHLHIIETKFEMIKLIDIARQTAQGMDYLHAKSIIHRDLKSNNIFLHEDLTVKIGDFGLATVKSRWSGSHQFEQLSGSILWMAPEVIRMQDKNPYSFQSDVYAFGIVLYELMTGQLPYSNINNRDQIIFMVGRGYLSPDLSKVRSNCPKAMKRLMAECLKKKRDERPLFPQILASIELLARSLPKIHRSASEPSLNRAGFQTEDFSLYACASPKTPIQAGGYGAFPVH
"IC50 [1, 9]","remaining activity at 10 µM [2, 10]","remaining activity at 10 µM [2, 11]",activity against kinase (in words) ([2]; panel of kinases),"remaining activity at 10 µM [3, 10]","remaining activity at 10 µM [3, 11]",activity against kinase (in words) ([3]; panel of kinases),"remaining activity at 10 µM [4, 10]","remaining activity at 10 µM [4, 11]",activity against kinase (in words) ([4]; panel of kinases),"remaining activity at 10 µM [5, 10]","remaining activity at 10 µM [5, 11]",activity against kinase (in words) ([5]; panel of kinases),solubility compared with Compound 19 (in words) ([6]; pH=4.0),solubility compared with Compound 19 (in words) ([6]; pH=7.0),pharmacokinetic (PK) profile compared with Compound 19 (in words) [7],SMILES,"solubility at 30 min [6, 12]","solubility at 30 min [6, 13]",safety profile compared with Compound 19 (in words) [8],IC50 [1]
12.2 nM,,,,,,,,,,,,,,,,"CN(C)c1nc(Nc2ccnc(C(F)(F)F)c2)nc(-c2cccc(C(F)(F)F)n2)n1 [Compound 18, N^2,N^2-dimethyl-6-(6-(trifluoromethyl)pyridin-2-yl)-N^4-(2-(trifluoromethyl)pyridin-4-yl)-1,3,5-triazine-2,4-diamine]",,,,
262 nM,79.2%,78.9%,active,58.2%,58.1%,active,69.9%,68.9%,active,79.8%,79.5%,active,much higher solubility,better solubility,better pharmacokinecitc (PK),"CN1CCN(c2nc(Nc3ccnc(C(F)(F)F)c3)nc(-c3cccc(C(F)(F)F)n3)n2)CC1 [Compound 17, 4-(4-methylpiperazin-1-yl)-6-(6-(trifluoromethyl)pyridin-2-yl)-N-(2-(trifluoromethyl)pyridin-4-yl)-1,3,5-triazin-2-amine]",123 µg/mL,0.276 µg/mL,favorable safety profile,
,,,,,,,,,,,,,,,,"CC(C)(O)CNc1nc(Nc2ccnc(C(F)(F)F)c2)nc(-c2cccc(C(F)(F)F)n2)n1 [Compound 19, reference compound]",1.59 µg/mL,0.109 µg/mL,,401 nM
